Measurements from patent US20220411414A1, “INHIBITORS FOR THE B-CATENIN/B-CELL LYMPHOMA 9 (BCL9) PROTEIN-PROTEIN INTERACTION” (H. LEE MOFFITT CANCER CENTER AND RESEARCH INSTITUTE, INC., priority 2018, published 2022).

What was measured:
[1] = biological target: T1, β-catenin/BCL9 (Homo sapiens, UniProt P35222); assay: AlphaScreen competitive inhibition assay, β-catenin/BCL9 PPI; type: binding; settings: for Ki: AlphaScreen
T1 construct: Full-length β-catenin and (residues 1-781) were cloned into a pET-28b vector carrying a C-terminal 6× histidine; made in house; host or cells: E. coli BL21 DE3
T1 sequence (P35222 1-781): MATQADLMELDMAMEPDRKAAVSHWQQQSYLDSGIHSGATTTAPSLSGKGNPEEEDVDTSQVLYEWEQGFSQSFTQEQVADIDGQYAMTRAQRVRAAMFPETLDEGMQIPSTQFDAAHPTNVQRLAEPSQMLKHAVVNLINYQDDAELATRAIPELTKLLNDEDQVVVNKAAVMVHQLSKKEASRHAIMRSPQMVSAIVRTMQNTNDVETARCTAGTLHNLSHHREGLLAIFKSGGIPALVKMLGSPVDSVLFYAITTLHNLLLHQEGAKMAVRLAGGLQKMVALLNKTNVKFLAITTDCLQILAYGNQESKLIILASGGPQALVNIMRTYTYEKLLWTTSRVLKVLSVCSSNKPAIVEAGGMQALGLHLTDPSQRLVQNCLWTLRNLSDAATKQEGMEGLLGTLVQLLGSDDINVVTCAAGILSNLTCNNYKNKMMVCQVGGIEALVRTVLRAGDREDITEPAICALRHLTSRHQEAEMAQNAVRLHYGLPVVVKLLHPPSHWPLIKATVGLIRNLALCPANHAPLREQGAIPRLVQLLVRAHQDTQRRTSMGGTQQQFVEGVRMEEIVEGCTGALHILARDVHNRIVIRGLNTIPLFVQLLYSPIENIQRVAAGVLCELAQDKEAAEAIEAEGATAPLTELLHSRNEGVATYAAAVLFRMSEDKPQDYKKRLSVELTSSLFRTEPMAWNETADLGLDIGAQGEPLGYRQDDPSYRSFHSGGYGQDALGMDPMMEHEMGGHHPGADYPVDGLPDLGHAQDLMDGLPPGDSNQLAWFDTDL
Excerpt: The biochemical AlphaScreen assay was employed to evaluate the inhibitory potency of these two final products for disruption of the β-catenin/BCL9 PPI.
(§1) BCL9 peptide synthesis and purification. Human BCL9 (residues 350-375), N-terminally biotinylated human BCL9 (residues 350-375), human E-cadherin (residues 824-877), and N-terminally biotinylated human E-cadherin (residues 824-877) were synthesized by InnoPep Inc. (San Diego, Calif., www.innopep.com). All synthesized peptides were purified by HPLC with purity >95%. The structures were validated by LC/MS. The sequences are as follows (Ahx, 6-aminohexanoic acid).
For the β-catenin/BCL9 assay, 5 nM of biotinylated BCL9 and 40 nM of His6-tagged β-catenin were incubated in assay buffer at 4° C. for 30 min. For the β-catenin/E-cadherin assay, 10 nM of biotinylated human E-cadherin, and 40 nM of His6-tagged human β-catenin were added and incubated in assay buffer at 4° C. for 30 min. Different concentrations of the tested peptide or inhibitor were added and incubated in 20 μL assay buffer at 4° C. for another 1.5 h. All of the above assay plates were covered and gently mixed on an orbital shaker. The donor and acceptor beads were then added to the plates to a final concentration of 10 μg/mL in 25 μL assay buffer. The mixture was incubated for 1 h at 4° C. before detection. The IC50 value was determined by nonlinear least-square analysis of GraphPad Prism 5.0. The inhibition constant (Ki) values were derived from the IC50 values using a method reported by Nikolovska-Coleska et al (Nikolovska-Coleska, Z.; Wang, R.; Fang, X.; Pan, H.; Tomita, Y.; Li, P.; Roller, P. P.; Krajewski, K.; Saito, N. G.; Stuckey, J. A.; Wang, S. Development and optimization of a binding assay for the XIAP BIR3 domain using fluorescence polarization, Anal. Biochem. 2004, 332, 261-273.). The assays were conducted under the conditions required by Nikolovska-Coleska et al.'s equation for determining the Ki values. All of the experiments were performed in triplicate. The results were expressed as mean±standard deviation. The inhibitor selectivity for, β-catenin/BCL9 over, β-catenin/E-cahderin interactions was defined as the ratio of the respective Ki value of β-catenin/E-cadherin interactions over that of β-catenin/BCL9 interactions.

[2] = biological target: T2, β-catenin/E-cadherin (Homo sapiens, UniProt P35222); assay: AlphaScreen selectivity assay, β-catenin/E-cadherin PPI; type: binding; settings: Table 2, read-out: Ki ± SD β-catenin/E-cadherin
T2 construct: Full-length β-catenin and (residues 1-781) were cloned into a pET-28b vector carrying a C-terminal 6× histidine; made in house; host or cells: E. coli BL21 DE3
T2 sequence (P35222 1-781): T1 sequence (P35222 1-781)
Excerpt: Compounds 4 and 5 were further evaluated with their selectivities for the disruption of β-catenin/BCL9 over β-catenin/E-cadherin interactions using the AlphaScreen selectivity assay (Zhang, M.; Wisniewski, J. A.; Ji, H AlphaScreen selectivity assay for, β-catenin/B-cell lymphoma 9 inhibitors. Anal. Biochen. 2015, 469, 43-53.).
as §1, with “The structures were validated by LC/MS. The sequences are as follows (Ahx, 6-aminohexanoic acid).” left out
For the β-catenin/BCL9 assay, 5 nM of biotinylated BCL9 and 40 nM of His6-tagged β-catenin were incubated in assay buffer at 4° C. for 30 min. […] The IC50 value was determined by nonlinear least-square analysis of GraphPad Prism 5.0. The inhibition constant (Ki) values were derived from the IC50 values using a method reported by Nikolovska-Coleska et al (Nikolovska-Coleska, Z.; Wang, R.; Fang, X.; Pan, H.; Tomita, Y.; Li, P.; Roller, P. P.; Krajewski, K.; Saito, N. G.; Stuckey, J. A.; Wang, S. Development and optimization of a binding assay for the XIAP BIR3 domain using fluorescence polarization, Anal. Biochem. 2004, 332, 261-273.). […] The results were expressed as mean±standard deviation. […]

[3] = tested on: A549; assay: MTs growth inhibition assay, A549 (Wnt-latent); type: cell-based; settings: Homo sapiens, read-out: MTs IC50 ± SD A549
[4] = tested on: TOPFlash (three wild-type Tcf binding sites) luciferase reporter; assay: Wnt-responsive TOPFlash luciferase reporter assay, β-catenin-activated HEK239; type: cell-based; settings: 24 h treatment, read-out: TOPFlash IC50 ± SD β-catenin-activated HEK239
Protocol: (§2) The TOPFlash luciferase reporter assay (in which the luciferase reporter has three wild-type Tcf4 binding sites) was performed with 4 and 5. Cell transfection and luciferase assay. FuGENE6 (E269A, Promega) 96 well plate format was used for the transfection of HEK293 and SW480 cells according to the manufacturer's instruction. HEK293 cells were co-transfected with 45 ng of TOPFlash or FOPFlash reporter gene, 135 ng pcDNA3.1-β-catenin, and 20 ng of pCMV-RL normalization reporter gene. SW480 cells were co-transfected with 60 ng of the TOPFlash or FOPFlash reporter gene and 40 ng of pCMV-RL normalization reporter. Cells were cultured in DMEM and 10% FBS at 37° C. for 24 h, and different concentrations of inhibitors or DMSO was added. After 24 h, the luciferase reporter activity was measured using the Dual-Glo system (E2940, Promega). Normalized luciferase activity in response to the treatment with 4 and 5 was compared with that obtained from the cells treated with DMSO. Experiments were performed in triplicate.

[5] = tested on: TOPFlash (three wild-type Tcf binding sites) luciferase reporter; assay: Wnt-responsive TOPFlash luciferase reporter assay, SW480; type: cell-based; settings: Homo sapiens, 24 h treatment, read-out: TOPFlash IC50 ± SD SW480
Protocol: as §2

[6] = tested on: FOPFlash (three mutant Tcf4 binding sites) luciferase reporter; assay: FOPFlash luciferase reporter assay; type: cell-based; settings: FIG. 1
Protocol: as §2, with “Cell” for “The TOPFlash luciferase reporter assay (in which the luciferase reporter has three wild-type Tcf4 binding sites) was performed with 4 and 5. Cell”

[7] = biological target: T3, β-catenin/BCL9 interaction (Homo sapiens, UniProt P35222); settings: literature; cited from earlier work
T3 sequence (P35222 1-781): T1 sequence (P35222 1-781)

[8] = tested on: Wnt target genes; settings: literature; cited from earlier work
[9] = biological target: T4, activated β-catenin (Homo sapiens, UniProt P35222); settings: literature; cited from earlier work
T4 sequence (P35222 1-781): T1 sequence (P35222 1-781)

## Cl.Cl.O=C(Nc1ccc(O[C@@H]2CCNC2)c(-c2cccc(-c3nn[nH]n3)c2)c1)c1ccc(O[C@H]2CCNC2)c(-c2ccc3ccsc3c2)c1 [Compound 5, (R)-3-((5-(3-(benzo[b]thiophen-6-yl)-4-(((S)-pyrrolidin-1-ium-3-yl)oxy)benzamido)-3′-(2H-tetrazol-5-yl)-[1,1′-biphenyl]-2-yl)oxy) pyrrolidin-1-ium chloride]
[1]; AlphaScreen biochemical assay
  selectivity for β-catenin/BCL9 over β-catenin/E-cadherin PPIs (in words): exceptionally high selectivity
[1]; Table 1, mean ± SD (n = 3)
  Ki: 1.6 ± 0.23 µM
[1]; Table 2, mean ± SD (n = 3)
  Ki: 1.6 ± 0.23 µM
[1]; ratio of Ki β-catenin/E-cadherin over Ki β-catenin/BCL9
  Selectivity BCL9/cadherin: >570
[2]
  Ki: > 915 µM
[3]
  IC50: > 400 µM
[4]
  IC50: 50 ± 5.2 µM
[5]
  IC50: 43 ± 3.4 µM
[6]
  FOPFlash luciferase activity: did not inhibit

## CC(C)c1cc2c(c(O)c1O)[C@@]1(C(=O)O)CCCC(C)(C)[C@@H]1CC2 [carnosic acid]
[7]
  disruption of the β-catenin/BCL9 interaction: can disrupt the β-catenin/BCL9 interaction
[8]
  transcription of Wnt target genes / β-catenin-dependent transcription: inhibit
[9]
  destabilization of activated β-catenin: destabilize
